The values that follow come from article PMC9032718, “Eltrombopag as an Allosteric Inhibitor of the METTL3-14 Complex Affecting the m^6A Methylation of RNA in Acute Myeloid Leukemia Cells” (Pharmaceuticals, 2022).

Each structure is given as a SMILES string.

The subject of assay [1] is AML cell line transplanted mouse. On the set-up: method as in PMID 22627766. The note with it: mouse model transplanted with an AML cell line; cited from earlier work.
The next assay addresses T1, G9a (Homo sapiens, UniProt Q96KQ7).
T1 construct: purchased Reaction Biology (Malvern, PA, USA), contract assay
T1 sequence (Q96KQ7 1-1210): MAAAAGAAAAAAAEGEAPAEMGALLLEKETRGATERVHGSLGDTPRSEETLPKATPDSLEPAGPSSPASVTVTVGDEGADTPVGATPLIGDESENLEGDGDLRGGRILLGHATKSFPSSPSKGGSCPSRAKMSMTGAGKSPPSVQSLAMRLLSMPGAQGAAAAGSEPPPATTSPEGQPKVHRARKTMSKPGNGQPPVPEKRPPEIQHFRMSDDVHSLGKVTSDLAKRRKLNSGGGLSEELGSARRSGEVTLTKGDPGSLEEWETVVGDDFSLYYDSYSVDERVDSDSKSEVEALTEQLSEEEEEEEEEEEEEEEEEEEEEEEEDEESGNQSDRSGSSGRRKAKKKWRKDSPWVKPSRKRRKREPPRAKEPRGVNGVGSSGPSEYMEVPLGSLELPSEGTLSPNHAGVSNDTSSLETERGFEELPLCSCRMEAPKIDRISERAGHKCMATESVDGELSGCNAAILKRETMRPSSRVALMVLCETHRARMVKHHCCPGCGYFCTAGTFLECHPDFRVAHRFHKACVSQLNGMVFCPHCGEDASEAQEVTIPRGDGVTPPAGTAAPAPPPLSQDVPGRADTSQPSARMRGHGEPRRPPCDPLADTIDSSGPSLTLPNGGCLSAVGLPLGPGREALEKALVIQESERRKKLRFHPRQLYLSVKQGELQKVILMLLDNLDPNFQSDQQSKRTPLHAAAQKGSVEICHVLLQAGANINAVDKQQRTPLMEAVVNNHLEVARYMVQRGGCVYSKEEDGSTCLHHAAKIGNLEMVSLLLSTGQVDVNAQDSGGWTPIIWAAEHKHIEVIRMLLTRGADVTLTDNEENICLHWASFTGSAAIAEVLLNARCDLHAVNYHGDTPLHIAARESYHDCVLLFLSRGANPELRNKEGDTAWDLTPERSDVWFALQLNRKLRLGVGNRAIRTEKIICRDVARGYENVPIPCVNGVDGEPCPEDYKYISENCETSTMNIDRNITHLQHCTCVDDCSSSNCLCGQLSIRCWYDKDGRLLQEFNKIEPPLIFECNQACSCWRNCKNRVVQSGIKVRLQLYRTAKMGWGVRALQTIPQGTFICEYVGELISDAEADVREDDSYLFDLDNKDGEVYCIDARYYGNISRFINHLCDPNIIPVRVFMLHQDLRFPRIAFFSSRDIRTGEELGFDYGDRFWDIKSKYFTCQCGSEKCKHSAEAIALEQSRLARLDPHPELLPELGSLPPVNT
Nature of the assay: Methyltransferase selectivity panel (MT HotSpot radioisotope assay), G9a. The format is biochemical. The note with it: 10 μM eltrombopag. On the procedure:
(§1) The selectivity profile of eltrombopag was investigated by testing the level of inhibition in a methyltransferase panel. The inhibition of 7 […] methyltransferase was tested at Reaction Biology (Malvern, PA, USA) using a gold standard radioisotope-based MT assay (MT HotSpot^TM) with 10 μM of eltrombopag in duplicate.

A further assay has as its system MOLM-13 cells. Nature of the assay: Anti-proliferative assay (EZ-cytox), MOLM-13. It is filed as cell-based. The note with it: Homo sapiens, MOLM-13, 72 h. On the procedure:
The MOLM-13, MOLM-14, HL60, MV4-11, and THP-1 cells were seeded in white 96-well clear bottomed plates with 100 μL of medium (5000 cells/well). The plated cells were treated with serially diluted compounds and incubated for 72 h at 37 °C. After incubation, 10 μL of EZ-cytox kit reagent from the EZ-cytox cell viability assay kit (DaeiLab, Seoul, Korea) was added to each well and then incubated for 3 h at 37 °C. The absorbance of metabolically active cells was measured at a wavelength of 450 nm using a Victor multilabel reader (PerkinElmer). The GI50 values were calculated by nonlinear regression analysis using OriginPro 9.1 software (OriginLab).

The target of another assay is T2, PRDM9 (Homo sapiens, UniProt Q9NQV7).
T2 construct: purchased Reaction Biology (Malvern, PA, USA), contract assay
T2 sequence (Q9NQV7 whole entry): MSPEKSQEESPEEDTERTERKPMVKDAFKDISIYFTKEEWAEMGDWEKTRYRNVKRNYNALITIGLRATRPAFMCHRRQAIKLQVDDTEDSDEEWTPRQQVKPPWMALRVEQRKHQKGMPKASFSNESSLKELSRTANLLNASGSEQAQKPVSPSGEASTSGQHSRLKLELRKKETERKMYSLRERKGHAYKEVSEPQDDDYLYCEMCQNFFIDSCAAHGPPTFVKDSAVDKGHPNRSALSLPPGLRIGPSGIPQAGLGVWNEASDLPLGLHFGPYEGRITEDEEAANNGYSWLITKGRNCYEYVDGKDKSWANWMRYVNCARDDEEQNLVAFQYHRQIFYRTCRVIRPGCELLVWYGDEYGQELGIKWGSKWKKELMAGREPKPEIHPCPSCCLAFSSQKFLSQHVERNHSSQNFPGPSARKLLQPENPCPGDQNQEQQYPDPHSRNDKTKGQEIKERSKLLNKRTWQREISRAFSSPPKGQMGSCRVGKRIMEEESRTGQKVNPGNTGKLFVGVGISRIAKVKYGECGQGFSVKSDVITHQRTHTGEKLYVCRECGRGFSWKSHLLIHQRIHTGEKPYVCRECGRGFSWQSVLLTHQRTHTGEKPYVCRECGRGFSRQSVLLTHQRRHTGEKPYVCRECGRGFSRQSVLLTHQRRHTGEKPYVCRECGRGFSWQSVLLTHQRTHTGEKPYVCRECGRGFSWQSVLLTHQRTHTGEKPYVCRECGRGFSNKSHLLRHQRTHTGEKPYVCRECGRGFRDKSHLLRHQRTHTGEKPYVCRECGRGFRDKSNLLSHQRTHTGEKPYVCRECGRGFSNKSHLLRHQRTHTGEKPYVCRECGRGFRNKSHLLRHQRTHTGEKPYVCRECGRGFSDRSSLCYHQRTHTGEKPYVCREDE
Nature of the assay: Methyltransferase selectivity panel (MT HotSpot radioisotope assay), PRDM9. It is filed as biochemical. The note with it: 10 μM eltrombopag. On the procedure:
as §1

The next assay addresses T3, METTL14 (Homo sapiens, UniProt Q9HCE5).
T3 construct: 10x His (thrombin-cleavable); made in house; host or cells: insect cells, baculovirus (pVL1393)
T3 sequence (Q9HCE5 1-456): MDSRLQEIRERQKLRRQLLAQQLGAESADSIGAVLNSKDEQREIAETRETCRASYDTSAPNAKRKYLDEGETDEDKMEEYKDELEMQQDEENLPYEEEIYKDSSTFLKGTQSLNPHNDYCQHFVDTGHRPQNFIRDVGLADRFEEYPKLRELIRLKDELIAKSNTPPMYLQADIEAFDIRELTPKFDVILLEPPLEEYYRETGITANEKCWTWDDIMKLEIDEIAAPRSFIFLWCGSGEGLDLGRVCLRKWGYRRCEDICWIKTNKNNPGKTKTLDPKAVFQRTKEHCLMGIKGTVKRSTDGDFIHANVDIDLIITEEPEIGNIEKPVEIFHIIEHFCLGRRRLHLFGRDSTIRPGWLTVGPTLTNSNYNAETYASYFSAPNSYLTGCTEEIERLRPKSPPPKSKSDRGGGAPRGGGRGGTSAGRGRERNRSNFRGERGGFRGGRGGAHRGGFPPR
Nature of the assay: Bioluminescence enzyme assay, single form of METTL14. The format is biochemical. The note with it: 36 μM eltrombopag; 300 nM METTL14, 5 h; read-out: % inhibition, single subunit enzyme form of METTL14. On the procedure: An enzymatic bioluminescence assay was established to identify the METTL3-14 inhibitor through screening. […] METTL3-14 activity was assessed by measuring the luminescence using a Victor multilabel reader (PerkinElmer, Waltham, MA, USA). The IC50 values were calculated by a nonlinear regression analysis using OriginPro 9.1 software (OriginLab).
To confirm the mechanism of action of eltrombopag in the METTL3-14 complex, 30 nM METTL3-14 and serially diluted eltrombopag were reacted with various concentrations of SAM or RNA substrate and saturating concentrations of the other substrate (3 μM SAM or 2 μM RNA substrate) for 20 min. To evaluate the inhibitory activity in a single form of METTL3 and METTL14, 1 μM of METTL3 and 300 nM of METTL14 were incubated with 1 μM of SAM, 500 nM of RNA substrates, and serially diluted eltrombopag for 5 h. To measure the inhibitory activity in the truncated form of the METTL3-14 complex, 1 μM of the truncated METTL3-14 complex was reacted with 1 μM of SAM, 500 nM of RNA substrates, and serially diluted eltrombopag for 5 h.

Turning to `CC1=NN(c2ccc(C)c(C)c2)C(=O)/C1=N\Nc1cccc(-c2cccc(C(=O)O)c2)c1O` [Eltrombopag], the “in-vivo anti-leukemic effect (survival)” value in assay [1] is listed as “prolonging the survival”. The values for the remaining activity at 10 µM on G9a and on PRDM9 were 99 ± 3.3% and 130 ± 4%, respectively. Growth in the assay with MOLM-13 cells was halved (GI50) at 8.28 µM. The inhibition (commonly the drop in the measured response relative to a control, in per cent) at 36 µM on METTL14 is 59.3%.
